Results on 2 molecules are retold here after patent US4298529A, “Alkoxyimino dioxy butyric acid derivatives” (Fujisawa Pharmaceutical Co., Ltd., priority 1978, dated 1981).

The subject of series [1] is Escherichia coli. NIHJ JC-2. Nature of the series: In vitro antibacterial activity, two-fold agar-plate dilution method. The following applies: NIHJJC2, HI-agar, 37° C., 20 hours, 100-fold diluted overnight culture. The format is cell-based. As to the method:
(§1) In vitro antibacterial activity was determined by the two-fold agar-plate dilution method as described below. One loopful of the 100-fold dilution of an overnight culture of each test strain in Trypticase-soy broth was streaked on heart infusion agar (HI-agar) containing graded concentrations of the test compound and incubated at 37° C. for 20 hours. The minimal inhibitory concentration (MIC) was expressed in μg/ml.

Series [2] relates to Klebsiella pneumoniae 20. The description is as above. In kind it is cell-based. The following applies: HI-agar, 37° C., 20 hours, 100-fold diluted overnight culture. As to the method:
as §1

Series [3] relates to Proteus mirabilis 18. The description is as above. The format is cell-based. Conditions: HI-agar, 37° C., 20 hours, 100-fold diluted overnight culture. As for the experimental part:
as §1

Series [4] has as its system Proteus vulgaris IAM-1025. Described as above. In kind it is cell-based. Conditions: IAM1025, HI-agar, 37° C., 20 hours, 100-fold diluted overnight culture. As to the method: as §1
Series [5] has as its system Pseudomonus aeruginosa NCTC-10490. Described as above. The following applies: HI-agar, 37° C., 20 hours, 100-fold diluted overnight culture. The format is cell-based. As for the experimental part: as §1
Series [6] deals with Serratia marcescens 35. The description is as above. The format is cell-based. Conditions: HI-agar, 37° C., 20 hours, 100-fold diluted overnight culture. As for the experimental part:
as §1

The subject of series [7] is Staphylococcus aureus 209P JC-1. The series is described as above. The following applies: HI-agar, 37° C., 20 hours, 100-fold diluted overnight culture. In kind it is cell-based. As to the method: as §1
Series [8] relates to Escherichia coli 54. Nature of the series: Protecting effect against experimental infections in mice. In kind it is in vivo. Conditions: Escherichia coli, 54, sc, 96 h; ICR mice, i.p. challenge 1.1 × 10^7 cells/mouse, s.c. one hour after challenge, survival after four days. As for the experimental part:
(§2) Male ICR strain mice aged 4 weeks, each weighing 18.5-21.5 g. were used in groups of 10 mice. The test bacteria were cultured overnight at 37° C. on Trypticase-soy agar and then suspended in 5% mucin to obtain the suspension corresponding to each challenge cells. Mice were inoculated intraperitoneally with 0.5 ml. of the suspension. A solution of test compound was given subcutaneously to the mice in various dosage one hour after the challenge. The ED50 values were calculated from the number of surviving mice for each dosage after four days of observation.

Series [9] concerns Klebsiella pneumoniae 39. Described as above. In kind it is in vivo. The following applies: Klebsiella pneumoniae, 39, sc, 96 h; ICR mice, i.p. challenge 8 × 10^6 cells/mouse, s.c. one hour after challenge, survival after four days. As for the experimental part: as §2
Series [10] deals with Proteus rettgeri 24. The series is described as above. In kind it is in vivo. Conditions: Providencia rettgeri, 24, sc, 96 h; ICR mice, i.p. challenge 9.9 × 10^6 cells/mouse, s.c. one hour after challenge, survival after four days. As for the experimental part: as §2
In series [11] the test system is Serratia Marcescens 58. The series is described as above. The format is in vivo. Conditions: sc, 96 h, ICR mice, i.p. challenge 1.2 × 10^7 cells/mouse, s.c. two divisional doses at 1 hr. and 3 hrs. after infection. As for the experimental part: as §2
^*3 treated with two divisional doses at 1 hr. and 3 hrs. after […]

Series [12] has as its system Escherichia coli 54. Nature of the series: MIC against the infecting strain. In kind it is cell-based. The following applies: Escherichia coli, 54, 20 h. As to the method: (§3) In vitro antibacterial activity was determined by the two-fold agar-plate dilution method as described below.
(§4) One loopful of the 100-fold dilution of an overnight culture of each test strain in Trypticase-soy broth was streaked on heart infusion agar (HI-agar) containing graded concentrations of the test compound and incubated at 37° C. for 20 hours. The minimal inhibitory concentration (MIC) was expressed in μg/ml.
(§5) ^*2 100fold dilution of the overnight

The subject of series [13] is Klebsiella pneumoniae 39. Nature of the series: MIC against the infecting strain. The format is cell-based. The following applies: Klebsiella pneumoniae, 39, 20 h. As for the experimental part: as §3, §4, §5
The subject of series [14] is Proteus rettgeri 24. Put plainly: MIC against the infecting strain. In kind it is cell-based. Conditions: Providencia rettgeri, 24, 20 h. As for the experimental part:
as §3, §4, §5

The subject of series [15] is Serratia Marcescens 58. Put plainly: MIC against the infecting strain. The format is cell-based. Conditions: 20 h. As for the experimental part: as §3, §4, §5
Series [16] can be described thus: Acute toxicity in rats. The following applies: rat, in vivo, 7 days observation. On the set-up: species or system rat (ICL-SD strain). As for the experimental part:
Ten male and 10 female rats aged 6 weeks (ICL-SD strain) were used per group. Test compound dissolved in distilled water was given subcutaneously and intravenously to the animals. […] The LD50 values were calculated from the number of dead animals by the Litchfield-Wilcoxon method.

Setting [17] is: inoculum size 10^0 (overnight culture).
Where [18] appears, read: inoculum size 10^-2 (100fold dilution of the overnight culture).
[19] abbreviates: inoculum size 10^0 (overnight culture), read-out: MIC.

Molecules are shown by their SMILES. ≈ marks a conversion by molar mass, not a printed value. Like-named read-outs stand apart in the source and are kept apart here.

As usually defined, the MIC is the least concentration at which growth counts as inhibited. Broadly, the ED50 is the dose that gives a 50% effect, or the effect in half of the subjects. In general, LD50 refers to the dose at which mortality reaches 50%. For `CO/N=C(\C(=O)NC1C(=O)N2C(C(=O)O)=CCSC12)c1csc(N)n1` (stereo not drawn) [Compound 1, 7-[2-(2-aminothiazol-4-yl)-2-methoxyiminoacetamido]-3-cephem-4-carboxylic acid (syn isomer)], the minimum inhibitory concentration (MIC) in series [1] is not above 0.025 µg/mL; in series [2], not above 0.025 µg/mL; in [3], not above 0.025 µg/mL; in [4], not above 0.025 µg/mL; in series [5], 0.39 µg/mL (≈ 1.02 µM); in series [6], 1.56 µg/mL (≈ 4.07 µM). The MIC was 6.25 µg/mL (≈ 16.3 µM) in series [7]; 0.78 µg/mL (≈ 2.03 µM) in [12] (setting [17]); 0.05 µg/mL (≈ 0.13 µM) in series [12] (setting [18]); 0.39 µg/mL (≈ 1.02 µM) in series [13] (setting [17]); not above 0.025 µg/mL in series [13] (setting [18]); 1.56 µg/mL (≈ 4.07 µM) in [14] (setting [17]). For the same molecule, the MIC in [14] (setting [18]) is not above 0.025 µg/mL; in series [15] (setting [19]) it was 25 µg/mL (≈ 65.2 µM); in [15] (inoculum size 10^-2 (100fold dilution of the overnight culture), read-out: MIC) it was 0.39 µg/mL (≈ 1.02 µM). Also, the ED50 in [8] was 0.95 mg/kg; in [9], less than 0.98 mg/kg; in series [10], 0.39 mg/kg; in series [11], 3.56 mg/kg. Also, the LD50 at 168 h in series [16] (iv, female, i.v., read-out: LD50 i.v.) was more than 8000 mg/kg; in series [16] (iv, male, i.v., read-out: LD50 i.v.) it was approximately 8000 mg/kg; in series [16] (sc, female, s.c., read-out: LD50 s.c.), more than 8000 mg/kg; in series [16] (sc, male, s.c., read-out: LD50 s.c.) it was more than 8000 mg/kg.
On to `CO/N=C(\C(=O)NC1C(=O)N2C(C(=O)O)=C(COC(C)=O)CSC12)c1csc(N)n1` (stereo not drawn) [Reference, 7[2(2-Amino-4-thiazolyl)-2-methoxyiminoacetamido] cephalospolanic acid (syn isomer), reference compound], for which the ED50 in series [8] came out at 2.8 mg/kg; in [9], 0.995 mg/kg; in series [10], 1.17 mg/kg; in series [11], 31.4 mg/kg. Moreover, the MIC in series [12] (setting [17]) was 3.13 µg/mL (≈ 6.87 µM); in [12] (setting [18]) it was 0.1 µg/mL (≈ 0.22 µM); in series [13] (setting [17]), 3.13 µg/mL (≈ 6.87 µM); in [13] (setting [18]), 0.05 µg/mL (≈ 0.11 µM); in series [14] (setting [17]) it was 50 µg/mL (≈ 110 µM); in [14] (setting [18]), 0.1 µg/mL (≈ 0.22 µM). Moreover, the figures for the MIC in series [15] and in series [15] (setting [19]) were 1.56 µg/mL (≈ 3.43 µM) and 50 µg/mL (≈ 110 µM), respectively.
